Source: US10125183B2, “Decoy peptides inhibiting binding of AMIGO2 and 3-phosphoinositide-dependent kinase 1” (Curacle Co., Ltd., priority 2015, dated 2018)

Columns and labels:
HUVECs [1] = test: Matrigel-induced tube formation assay; format: cell-based, human; settings: PTD-A2 treated ECs
Protocol: The tube formation was assayed as previously described (Choi et al., 2009). Briefly, 250 μL of Matrigel™ (BD Biosciences) was added to a 16-mm diameter tissue culture well on the ice. HUVEC cells then ware placed on that and tube formation was confirmed. The images of the tubes were quantified using ImageJ software (National Institutes of Health).

[2] = molecular target: T1, association between AMIGO2 and PDK1 (Homo sapiens, UniProt O15530); test: Immunoprecipitation of AMIGO2 and blotting for PDK1 in peptide-treated HUVECs; format: cell-based
T1 construct: endogenous in cells; host or cells: endothelial cells (HUVECs)
T1 sequence (O15530 1-556): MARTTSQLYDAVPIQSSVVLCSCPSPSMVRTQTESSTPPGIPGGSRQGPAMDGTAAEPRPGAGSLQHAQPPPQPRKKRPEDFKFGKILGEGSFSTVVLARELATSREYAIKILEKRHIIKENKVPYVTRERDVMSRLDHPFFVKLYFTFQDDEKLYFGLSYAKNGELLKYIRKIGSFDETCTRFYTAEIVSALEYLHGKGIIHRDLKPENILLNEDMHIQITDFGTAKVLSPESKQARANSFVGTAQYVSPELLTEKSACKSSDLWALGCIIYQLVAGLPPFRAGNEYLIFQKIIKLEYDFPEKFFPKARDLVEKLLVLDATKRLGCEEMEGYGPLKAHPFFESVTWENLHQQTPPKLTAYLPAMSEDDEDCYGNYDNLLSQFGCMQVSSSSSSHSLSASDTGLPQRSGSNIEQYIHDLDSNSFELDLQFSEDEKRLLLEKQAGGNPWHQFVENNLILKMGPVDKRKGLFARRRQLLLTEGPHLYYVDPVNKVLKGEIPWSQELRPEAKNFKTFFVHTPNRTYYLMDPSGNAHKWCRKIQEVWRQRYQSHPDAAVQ
Protocol: For co-immunoprecipitation, HEK293T cells were lysed in 1 mL lysis buffer (20 mmol/L Tris/HCl pH 8.0, 2 mmol/L EDTA, 137 mmol/L NaCl, 1 mmol/L NaVO4, 1 mmol/L PMSF, 10% glycerol, and 1% Triton X-100), and were centrifuged at 14,000×g for 15 min at 4° C., and then the supernatants were immunoprecipitated with antibodies against FLAG (Sigma-Aldrich) and GFP (Santa Cruz Biotechnology) at 4° C. overnight. The immunoprecipitated proteins were obtained by using protein A-agarose beads (Upstate Biotechnology), and detected by SDS-PAGE.
(§1) The PTD-A2 of FITC-linker-YGRKKRRQRRR-GKRVVFLEPLKDTA (SEQ ID NO: 37) (decoy peptide) and the control peptide (FITC-linker-YGRKKRRQRRR-GRVKTDFLAVPEKL (SEQ ID NO: 38)) (Con-pep) were obtained from Peptron. The experiment was performed using 5 μM concentration in vitro, 4 mg/kg was used for an animal experiment. Peptide treated HUVECs were incubated with serum-free M199 medium at 37° C.

C57BL/6J mice = test: Mouse model of oxygen-induced retinopathy (OIR); format: in vivo; settings: injected every day for five days from P12
Protocol: OIR was induced in C57BL/6J mice as previously described (Connor et al., 2009). Briefly, litters of postnatal day seven (P7) C57BL/6J pups were placed in a 75% oxygen atmosphere for five days and then returned to room air at age P12. After returning to room air, the pups were injected with PBS, Con-pep and PTD-A2 every day for five days. Following the injections, crumps of non-vascular regions, vascular regions and blood vessels were detected with CD31 staining.

PDK1 = PDK1 localization in HUVECs after VEGF treatment (immunofluorescence); format: cell-based, human; settings: PTD-A2-treated HUVECs
Protocol: HUVECs were fixed in 3.7% formaldehyde for 10 min and permeabilized with 0.1% Triton X-100 on the ice. Cells were labeled with anti-FAK antibody (Santa Cruz Biotechnology), anti-PDK1 antibody (Cell Signaling Technology), anti-Akt antibody (Cell Signaling Technology), and anti-AMIGO2 antibody (Abcam) for 2 h at room temperature or overnight at 4° C. Afterwards, the cells were incubated with Alexa 488 and Alexa 546 secondary antibodies (Invitrogen) for 60 min at room temperature, and were then examined under a confocal microscope (LSM 700 META; Carl Zeiss).
as §1

Akt and PDK1 = test: VEGF-induced Akt signaling in HUVECs; format: cell-based, human; settings: PTD-A2-treated HUVECs
Protocol: as §1

HUVECs [3] = test: HUVEC cell viability with or without VEGF; format: cell-based, human; settings: serum-free starvation with or without VEGF
Protocol: Endothelial progenitor cells (EPC) were isolated from human umbilical cord blood as previously described (Maeng et al., 2009). Briefly, human umbilical cord blood samples (approximately 50 mL each) were collected from fresh placentas with attached umbilical cords by gravity flow. Human umbilical vein endothelial cells (HUVECs) were isolated from human umbilical cord veins using collagenase as described previously (Marin et al., 2001), and cells from passages three to six were used. HUVECs were cultured on 2% gelatin-coated dishes at 37° C. in a 5% CO2-humidified atmosphere using M199 medium (HyClone) containing 20% fetal bovine serum (FBS), 100 U/mL penicillin, 100 μg/mL streptomycin, 3 ng/mL bFGF (Upstate Biotechnology), and 5 U/mL heparin.
as §1

B16F10 melanoma tumors = test: B16F10 melanoma tumor model; format: in vivo, mouse; settings: 4 mg/kg every other day
Protocol: B16F10 melanoma cells (2.5×10^5 cells in 100 μl) were subcutaneously injected into the dorsal flank of 6-7 week-old mice and then PTD-Con or PTD-A2 peptide (4 mg/kg every other day) was administered by intratumoral injection after the tumor volume exceeded 100 mm^3. The size was evaluated every day, tumor samples were frozen sectioned, and stained with anti-CD31 antibody to detect the tumor vascular changes, and then examined the apoptosis bio TUNEL staining. For the TUNEL assay, an in situ cell death detection kit (Roche) was used, and sections were analyzed using a confocal microscope (LSM 700 META; Carl Zeiss).

PDK1 PH domain = molecular target: T2, PDK1 PH domain (Homo sapiens, UniProt O15530); test: Decoy peptide binding assay (FITC-PTD-A2 with His-tagged PH domain proteins); settings: FITC-PTD-A2, PH domain proteins 0-60 μg, fluorescence
T2 construct: the purified His-tagged PH domain proteins were incubated with Ni^2+-NTA resins; made in house; host or cells: Escherichia coli BL21
T2 sequence (O15530 459-550 limits assumed): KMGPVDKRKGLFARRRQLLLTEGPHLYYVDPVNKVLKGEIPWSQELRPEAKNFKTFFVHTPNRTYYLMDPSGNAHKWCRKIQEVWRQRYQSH
Protocol: (§2) For the peptide binding assay, the purified His-tagged PH domain proteins were incubated with Ni^2+-NTA resins for 1 h, incubated in vitro with the FITC-PTD-A2 or Con-pep for 1 h, washed five times, eluted with elution buffer. The FITC level of eluted material was then measured using FLUOstar Omega (BGMLABTECH). For the peptide competition assay, the purified His tagged PH domain proteins were incubated with Ni^2+-NTA resins for 1 h, incubated in vitro with the Cytoplasm Domain protein of AMIGO2 proteins with FITC-PTD-A2 or Con-pep for 1 h, washed five times, eluted with elution buffer, and the fluorescence was measured. The FITC level of eluted material was then measured using FLUOstar Omega.

C57BL/6 mice = test: Matrigel plug angiogenesis assay; format: in vivo, mouse; settings: 25 μM peptide with VEGF 200 ng, subcutaneous, five days
Protocol: Angiogenesis was evaluated as previously described (Choi et al., 2009). PBS; Matrigel™ (500 μL; BD Biosciences) mixed with PTD-A2 (25 μM), VEGF (200 ng) and heparin (10 U); and Con-pep (25 μM), VEGF (200 ng) and heparin (10 u) were each subcutaneously injected to Five- to six-week-old C57BL/6 mice. Following injection, the Matrigel™ rapidly formed a single, solid gel plug. After five days, the skin of the mouse was pulled back to expose the Matrigel™ plug, which remained intact. To quantify blood vessel formation, hemoglobin was measured using the Drabkin method and the Drabkin reagent kit 525 (Sigma-Aldrich), and immunohistochemistry was performed using anti-CD31 antibody (BD Biosciences) to identify infiltrating ECs.

[4] = molecular target: T3, interaction of the CD of AMIGO2 and PH domain of PDK1 (Homo sapiens, UniProt O15530); test: Peptide competition assay (GST-AMIGO2 CD versus peptide on His-tagged PDK1 PH); format: binding; settings: His-tagged PDK1 PH with GST-AMIGO2 CD and peptide, dose dependent
T3 construct: the purified His tagged PH domain proteins were incubated with Ni^2+-NTA resins; made in house; host or cells: Escherichia coli BL21
T3 sequence (O15530 459-550 limits assumed): T2 sequence (O15530 459-550 limits assumed)
Protocol: as §2

FITC-linker-YGRKKRRQRRR-GKRVVFLEPLKDTA (SEQ ID NO: 37) [PTD-A2]
Matrigel-induced tube formation (HUVECs [1]): inhibited
association between AMIGO2 and PDK1 in endothelial cells [2]: inhibited
avascular areas of retinas (C57BL/6J mice): increased
retinal hemorrhage (C57BL/6J mice): significantly reduced
retinal vascular areas (C57BL/6J mice): significantly reduced
tuft formation (C57BL/6J mice): significantly reduced
PDK1 localization to the plasma membrane following VEGF treatment (PDK1): unable to move to the plasma membrane
activity of both Akt and PDK1 (Akt and PDK1): reduced
cell viability of PTD-A2-treated HUVECs (HUVECs [3]): dose and time-dependent inhibitory effect
apoptotic regions of tumors (TUNEL assay) (B16F10 melanoma tumors; compared to PBS or Con-pep groups): increased
tumor formation (B16F10 melanoma tumors; intratumoral injection): decreased
tumor angiogenesis (B16F10 melanoma tumors; intratumoral, CD31 staining): decreased
binding to the PDK1 PH domain (PDK1 PH domain): bound
hemoglobin contents of Matrigel plugs (C57BL/6 mice): lower
neovascularization in Matrigel plugs (C57BL/6 mice): dramatic inhibition
interaction of the CD of AMIGO2 and PH domain of PDK1 [4]: inhibited
